Results published in the supplement of paper PMC8671470.

Experiments:
Conditions in all cases: 72 h
[1] = tested on: Mono-Mac-6; assay: cell viability (% survival relative to DMSO control, bortezomib = 0%); higher = less cytotoxic
Outline: (§1)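 Percent survival figures are means of duplicate wells. They were obtained by CellTiter-Glo luminescence after 10 AML and 5 CML cell lines spent 72 h at 37 °C with 5% CO2 in 384-well plates with compounds at 1, 10, 100, 1000 or 10000 nM. Vehicle was set to 100% and a 10 µM positive control to 0%.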

[2] = tested on: LAMA-84; assay: as above
Outline: as §1

[3] = tested on: BV-173; assay: as above
Outline: as §1

[4] = tested on: HL-60; assay: area under dose-response curve (viability, 1 nM-10 uM) (fraction (0-1)); higher = more sensitive
Outline: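 Four-parameter log-logistic fits in drc and PharmacoGx supplied area under the curve where it is given. Underlying viability came from CellTiter-Glo, normalised to DMSO and proteasome-inhibitor wells, with the proteasome inhibitor at 10 μM. HL-60 cells in RPMI 1640 plus 10% FBS had been rescreened against the full library at five tenfold concentrations of 1–10,000 nM, in duplicate on 384-well plates, with DMSO or 100 nM of one of three metabolic inhibitors, for 72 h at 37 °C, 5% CO2.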

[5] = tested on: myeloid leukemia patient primary cells Pat.2; assay: cell viability (% survival relative to DMSO control); higher = less cytotoxic
Outline: (§2)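 Mononuclear cells from patients with AML or CML were thawed, purified on Ficoll and placed in RPMI 1640 with 10% FBS at 10,000 cells/well on 384-well plates. The plates came pre-printed with 70 compounds at five tenfold concentrations spanning 1–10,000 nM, in duplicate, and cells were exposed for 72 h. CellTiter-Glo gave viability, scaled between DMSO wells and wells with 10 μM proteasome inhibitor. Where reported, area under the curve was obtained from log-logistic fits with four parameters using the drc and PharmacoGx R packages.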

[6] = tested on: myeloid leukemia patient primary cells Pat.14; assay: as above
Outline: as §2

[7] = tested on: myeloid leukemia patient primary cells Pat.10; assay: as above
Outline: as §2

[8] = tested on: myeloid leukemia patient primary cells Pat.8; assay: as above
Outline: as §2

[9] = tested on: myeloid leukemia patient primary cells Pat.11; assay: area under dose-response curve (viability, 1 nM-10 uM) (fraction (0-1)); higher = more sensitive
Method: (§3)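 AUC (0–1, higher = more sensitive) of the 5-point dose–response (1 nM–10 µM, 72 h, CellTiter-Glo) in primary AML/CML patient mononuclear cells. 0.030103 is the floor for inactive compounds.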

[10] = tested on: myeloid leukemia patient primary cells Pat.13; assay: as above
Method: as §3

[11] = tested on: myeloid leukemia patient primary cells Pat.7; assay: as above
Method: as §3

[12] = tested on: myeloid leukemia patient primary cells Pat.4; assay: as above
Method: as §3

[13] = tested on: myeloid leukemia patient primary cells Pat.2; assay: as above
Method: as §3

[14] = tested on: myeloid leukemia patient primary cells Pat.12; assay: as above
Method: as §3

[15] = tested on: myeloid leukemia patient primary cells Pat.14; assay: as above
Method: as §3

[16] = tested on: myeloid leukemia patient primary cells Pat.5; assay: as above
Method: as §3

[17] = tested on: myeloid leukemia patient primary cells Pat.6; assay: as above
Method: as §3

[18] = tested on: myeloid leukemia patient primary cells Pat.15; assay: as above
Method: as §3

[19] = tested on: myeloid leukemia patient primary cells Pat.3; assay: as above
Method: as §3

[20] = tested on: myeloid leukemia patient primary cells Pat.1; assay: as above
Method: as §3

[21] = tested on: myeloid leukemia patient primary cells Pat.10; assay: as above
Method: as §3

[22] = tested on: myeloid leukemia patient primary cells Pat.9; assay: as above
Method: as §3

[23] = tested on: myeloid leukemia patient primary cells Pat.8; assay: as above
Method: as §3

c1cc(-c2cnn3cc(-c4ccc(OCCN5CCCCC5)cc4)cnc23)ccn1 [Dorsomorphin]
Conditions | area under dose-response curve, co-treatment: AZD3965 100 nM | area under dose-response curve, co-treatment: DMSO vehicle | area under dose-response curve, co-treatment: GSK2194069 100 nM | area under dose-response curve, co-treatment: pictilisib 100 nM | cell viability, 1 nM [%] | cell viability, 10 nM [%] | cell viability, 100 nM [%] | cell viability, 1000 nM [%] | cell viability, 10000 nM [%]
[1] | – | – | – | – | 95.3 | 101 | 103 | 42.8 | 6.23
[2] | – | – | – | – | 96.4 | 98.8 | 96.5 | 96.1 | 28.8
[3] | – | – | – | – | 89.8 | 108 | 99.9 | 90.1 | 53.2
[4] | 0.0329 | 0.0501 | < 0.0301 | 0.112 | – | – | – | – | –
[5] | – | – | – | – | 95.8 | 99.8 | 92.5 | > 100 | 59.4
[6] | – | – | – | – | 48.1 | 100 | 53 | 84.5 | 60.8
[7] | – | – | – | – | 17.6 | 76.4 | 61.4 | 27.6 | 38.4
[8] | – | – | – | – | 77.5 | 99 | 92.6 | 81.6 | 68.6

Conditions | area under dose-response curve
[9] | 0.106
[10] | 0.195
[11] | 0.0504
[12] | 0.182
[13] | < 0.0301
[14] | < 0.0301
[15] | < 0.0301
[16] | 0.508
[17] | < 0.0301
[18] | 0.0705
[19] | 0.0457
[20] | 0.142
[21] | 0.342
[22] | 0.488

CO[C@H]1C[C@@H]2CC[C@@H](C)[C@@](O)(O2)C(=O)C(=O)N2CCCC[C@H]2C(=O)O[C@H]([C@H](C)C[C@@H]2CC[C@@H](OCCO)[C@H](OC)C2)CC(=O)[C@H](C)/C=C(\C)[C@@H](O)[C@@H](OC)C(=O)[C@H](C)C[C@H](C)/C=C/C=C/C=C/1C [Everolimus]
Conditions | area under dose-response curve, co-treatment: AZD3965 100 nM | area under dose-response curve, co-treatment: DMSO vehicle | area under dose-response curve, co-treatment: GSK2194069 100 nM | area under dose-response curve, co-treatment: pictilisib 100 nM | cell viability, 1 nM [%] | cell viability, 10 nM [%] | cell viability, 100 nM [%] | cell viability, 1000 nM [%] | cell viability, 10000 nM [%]
[1] | – | – | – | – | 74.2 | 46.4 | 53.1 | 40.7 | 44.2
[2] | – | – | – | – | 72.2 | 52.8 | 62.8 | 53.7 | 37.9
[3] | – | – | – | – | 79.3 | 51.9 | 56 | 43.6 | 34.3
[4] | < 0.0301 | < 0.0301 | < 0.0301 | < 0.0301 | – | – | – | – | –
[5] | – | – | – | – | 82.6 | 83.8 | 74.4 | 82.3 | 68.2
[6] | – | – | – | – | 90.7 | 53.5 | 96.7 | 59.3 | 17.4
[7] | – | – | – | – | 34.9 | 31.3 | 34.9 | 41.7 | 11.8
[8] | – | – | – | – | 67.6 | 68.8 | 56.4 | 80.7 | 66.5

Conditions | area under dose-response curve
[9] | < 0.0301
[10] | 0.0367
[11] | 0.139
[12] | 0.413
[13] | 0.0353
[14] | < 0.0301
[15] | 0.177
[16] | 0.808
[17] | 0.0682
[18] | 0.625
[19] | 0.746
[20] | 0.122
[21] | 0.604
[22] | 0.319
[23] | < 0.0301

CN(Cc1cnc2nc(N)nc(N)c2n1)c1ccc(C(=O)N[C@@H](CCC(=O)O)C(=O)O)cc1 [Methotrexate]
Conditions | area under dose-response curve, co-treatment: AZD3965 100 nM | area under dose-response curve, co-treatment: DMSO vehicle | area under dose-response curve, co-treatment: GSK2194069 100 nM | area under dose-response curve, co-treatment: pictilisib 100 nM | cell viability, 1 nM [%] | cell viability, 10 nM [%] | cell viability, 100 nM [%] | cell viability, 1000 nM [%] | cell viability, 10000 nM [%]
[1] | – | – | – | – | 105 | 44.3 | 5.95 | 7.21 | 7.86
[2] | – | – | – | – | 98.8 | 34 | 22.7 | 19.4 | 20.8
[3] | – | – | – | – | 107 | 98.3 | 2.71 | 1.64 | 2.28
[4] | 0.618 | 0.523 | 0.515 | 0.544 | – | – | – | – | –
[5] | – | – | – | – | 98.8 | 96.8 | 98.1 | 75.3 | 63.1
[6] | – | – | – | – | 89 | 94.6 | 87.8 | 22.5 | 35.6
[7] | – | – | – | – | 68.8 | 42.2 | 80.2 | 23 | 15.2
[8] | – | – | – | – | 76.5 | 89.1 | 96.3 | 70.3 | 86.1

Conditions | area under dose-response curve
[9] | < 0.0301
[10] | < 0.0301
[11] | 0.399
[12] | < 0.0301
[14] | < 0.0301
[15] | 0.306
[16] | 0.384
[17] | < 0.0301
[18] | < 0.0301
[19] | 0.469
[20] | < 0.0301
[21] | 0.294
[22] | 0.526
[23] | < 0.0301
